Some results are limits rather than exact numbers.

What all share (format): cell-based
For one assay, the target named is T1, Gal-4 hPPARα (Homo sapiens, UniProt Q07869).
T1 construct: Plasmids pGal4-hPPARα, pGal4-hPPARγ, pGal4-hPPARδ and pG5-TK-pGL3 were constructed as previously described by Staels, Bart, et al., Nature 1998 Jun; 25
T1 sequence (Q07869 200-468 limits assumed): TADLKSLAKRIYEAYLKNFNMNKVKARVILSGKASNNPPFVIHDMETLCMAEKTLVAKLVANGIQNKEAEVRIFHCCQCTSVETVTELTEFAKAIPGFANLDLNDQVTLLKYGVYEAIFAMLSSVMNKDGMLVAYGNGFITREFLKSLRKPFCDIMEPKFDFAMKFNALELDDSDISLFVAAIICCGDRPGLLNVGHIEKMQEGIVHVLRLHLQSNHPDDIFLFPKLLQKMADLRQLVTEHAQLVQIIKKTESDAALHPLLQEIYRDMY
The assay can be described thus: Gal4-hPPARα transient transfection reporter assay in Cos cells. The conditions noted are these: luciferase reporter, 24 hours with compound, scale 1-5, read-out: Gal-4 hPPAR α EC50 (scaled number). On the procedure:
(§1) Construction of recombinant plasmids. Plasmids pGal4-hPPARα, pGal4-hPPARγ, pGal4-hPPARδ and pG5-TK-pGL3 were constructed as previously described by Staels, Bart, et al., Nature 1998 Jun. 25; 393 (6687): 790-793, by Staels (Institut Pasteur de Lille, FR).
(§2) Transient transfection assays. Cos cells were seeded in 60-mm dishes at a density of 5.5×10^5 cells/dish in Dulbecco's modified Eagle's medium (DMEM) supplemented with 10% fetal calf serum (FCS) and incubated at 37° C. for 24 hours before transfection. Cells were transfected in Opti-MEM (Gibco; Invitrogen, Carlsbad, Calif.) without FCS for 3 hours at 37° C., using polyethylenimine, with reporter and expression plasmids. The plasmid pBluescript (Stratagene, La Jolla, Calif.) was used as carrier DNA to set the final amount of DNA to 5.5 μg/dish. The pCMV-b-galactosidase expression plasmid was cotransfected as a control for transfection efficiency. Transfection was stopped by the addition of DMEM supplemented with 10% FCS, and cells were then incubated at 37° C. After 16 hours, cells were trypsinized and seeded in 96-well plates at the density of 2×10^4 cells/well and incubated for 6 hours in 10% FCS-containing DMEM. Cells were then incubated for 24 hours in DMEM containing 0.2% FCS and increasing concentrations of the compound tested or vehicle (DMSO). At the end of the experiment, cells were washed once with ice-cold PBS, lysed and the luciferase and b-galactosidase assays were performed in a luminometer and spectrophotomer. Transfection efficiencies were normalized with the b-galactosidase activity assay. Half-maximal effective concentration (EC50) was estimated using Prism software (GraphPad). All transfection experiments were performed at least three times.
(§3) In the following tables, proprietary compound EC50 values for hPPAR α, β, δ and γ are shown. The EC50 value is the concentration of a drug that induces a response halfway between the baseline and maximum, and is commonly used as a measure of drug potency. EC50 values are reported on a scale of 1 through 5, wherein the value scale is defined for each receptor as follows: […]
(A reporter such as luciferase makes a cellular process visible.)

A further assay deals with T2, Gal-4 hPPARγ (Homo sapiens, UniProt P37231).
T2 construct: Plasmids pGal4-hPPARα, pGal4-hPPARγ, pGal4-hPPARδ and pG5-TK-pGL3 were constructed as previously described by Staels, Bart, et al., Nature 1998 Jun; 25
T2 sequence (P37231 238-505 limits assumed): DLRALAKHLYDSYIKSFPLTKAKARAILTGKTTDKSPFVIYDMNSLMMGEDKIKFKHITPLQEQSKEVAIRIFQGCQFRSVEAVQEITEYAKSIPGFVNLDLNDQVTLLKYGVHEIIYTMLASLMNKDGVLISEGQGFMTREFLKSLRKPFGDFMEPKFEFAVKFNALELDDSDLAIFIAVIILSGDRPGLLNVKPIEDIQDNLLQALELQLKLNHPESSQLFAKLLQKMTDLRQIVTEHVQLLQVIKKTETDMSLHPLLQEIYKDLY
In words: Gal4-hPPARγ transient transfection reporter assay in Cos cells. The conditions noted are these: luciferase reporter, 24 hours with compound, scale 1-5, read-out: Gal-4 hPPAR γ EC50 (scaled number). On the procedure: as §1, §2, §3

The next assay concerns the target T3, Gal-4 hPPARβ/δ (Homo sapiens, UniProt Q03181).
T3 construct: Plasmids pGal4-hPPARα, pGal4-hPPARγ, pGal4-hPPARδ and pG5-TK-pGL3 were constructed as previously described by Staels, Bart, et al., Nature 1998 Jun; 25
T3 sequence (Q03181 171-441 limits assumed): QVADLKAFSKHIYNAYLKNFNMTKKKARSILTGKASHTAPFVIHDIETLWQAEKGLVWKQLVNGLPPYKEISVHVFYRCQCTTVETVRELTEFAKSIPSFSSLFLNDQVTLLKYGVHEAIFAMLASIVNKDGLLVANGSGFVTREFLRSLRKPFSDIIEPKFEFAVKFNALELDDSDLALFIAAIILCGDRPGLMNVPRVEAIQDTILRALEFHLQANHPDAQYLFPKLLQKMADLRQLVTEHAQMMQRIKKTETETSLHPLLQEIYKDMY
The assay can be described thus: Gal4-hPPARδ transient transfection reporter assay in Cos cells. The conditions noted are these: luciferase reporter, 24 hours with compound, scale 1-5, read-out: Gal-4 hPPAR β/δ EC50 (scaled number). The method, then: as §1, §2, §3

`CC(C)(Sc1ccc(C(=O)OCc2cnn(Cc3ccc(C(C)(C)C)cc3)c2)cc1)C(=O)O` [Compound 6, 2-(4-(((1-(4-tert-butylbenzyl)-1H-pyrazol-4-yl)methoxy)carbonyl)phenylthio)-2-methylpropanoic acid]: the EC50 is 0.001 to 0.05 µM at Gal-4 hPPARα, 0.201 to 0.999 µM at Gal-4 hPPARγ and greater than 1 µM on Gal-4 hPPARβ/δ.
For `COc1ccc(Cn2cc(COC(=O)c3ccc(SC(C)(C)C(=O)O)cc3)cn2)cc1` [Compound 8, 2-(4-(((1-(4-methoxybenzyl)-1H-pyrazol-4-yl)methoxy)carbonyl)phenylthio)-2-methylpropanoic acid] the same measures were 0.051 to 0.2 µM, greater than 1 µM and greater than 1 µM.
Taken in the same sequence, the figures for `Cc1ccc(-n2cc(COC(=O)c3ccc(OC(C)(C)C(=O)O)cc3)c(-c3ccccc3)n2)cc1` [Compound 17, 2-methyl-2-(4-(((3-phenyl-1-p-tolyl-1H-pyrazol-4-yl)methoxy)carbonyl)phenoxy)propanoic acid] were 0.051 to 0.2 µM, 0.201 to 0.999 µM and 0.001 to 0.05 µM.
Taken in the same sequence, the figures for `CC(C)(Sc1ccc(C(=O)OCc2cnn(-c3ccc(C(F)(F)F)cc3)c2)cc1)C(=O)O` [Compound 18, 2-methyl-2-(4-(((1-(4-(trifluoromethyl)phenyl)-1H-pyrazol-4-yl)methoxy)carbonyl)phenylthio)propanoic acid] were 0.001 to 0.05 µM, 0.201 to 0.999 µM and 0.201 to 0.999 µM.
Turning to `CSc1ccc(Cn2cc(COC(=O)c3ccc(SC(C)(C)C(=O)O)cc3)cn2)cc1` [Compound 20, 2-methyl-2-(4-(((1-(4-(methylthio)benzyl)-1H-pyrazol-4-yl)methoxy)carbonyl)phenylthio)propanoic acid], the EC50 on Gal-4 hPPARα was 0.001 to 0.05 µM; at Gal-4 hPPARγ, greater than 1 µM; on Gal-4 hPPARβ/δ, greater than 1 µM.
For `CC(C)(Sc1ccc(C(=O)OCc2cnn(Cc3ccc(-c4ccccc4)cc3)c2)cc1)C(=O)O` [Compound 22, 2-(4-(((1-(biphenyl-4-ylmethyl)-1H-pyrazol-4-yl)methoxy)carbonyl)phenylthio)-2-methylpropanoic acid], the EC50 was 0.051 to 0.2 µM at Gal-4 hPPARα, greater than 1 µM on Gal-4 hPPARγ and greater than 1 µM at Gal-4 hPPARβ/δ.
Consider `CC(C)(Sc1ccc(C(=O)OCc2cnn(Cc3ccc(F)c(F)c3)c2)cc1)C(=O)O` [Compound 24, 2-(4-(((1-(3,4-difluorobenzyl)-1H-pyrazol-4-yl)methoxy)carbonyl)phenylthio)-2-methylpropanoic acid], for which the results for the EC50 at Gal-4 hPPARα, at Gal-4 hPPARγ and on Gal-4 hPPARβ/δ were 0.051 to 0.2 µM, greater than 1 µM and greater than 1 µM, respectively.
As for `CC(C)(Sc1ccc(C(=O)OCc2cnn(Cc3ccc4ccccc4c3)c2)cc1)C(=O)O` [Compound 26, 2-methyl-2-(4-(((1-(naphthalen-2-ylmethyl)-1H-pyrazol-4-yl)methoxy)carbonyl)phenylthio)propanoic acid], the EC50 is 0.001 to 0.05 µM on Gal-4 hPPARα, greater than 1 µM at Gal-4 hPPARγ and greater than 1 µM at Gal-4 hPPARβ/δ.
Consider `CC(C)(Oc1ccc(C(=O)OCc2cnn(Cc3ccc4c(c3)C(C)(C)CCC4(C)C)c2)cc1)C(=O)O` [Compound 28], for which the EC50 on Gal-4 hPPARα was 0.201 to 0.999 µM; on Gal-4 hPPARγ, greater than 1 µM; on Gal-4 hPPARβ/δ, greater than 1 µM.
With `CC(C)(Sc1ccc(C(=O)OCc2cnn(Cc3ccc4c(c3)C(C)(C)CCC4(C)C)c2)cc1)C(=O)O` [Compound 29, 2-methyl-2-(4-(((1-((5,5,8,8-tetramethyl-5,6,7,8-tetrahydronaphthalen-2-yl)methyl)-1H-pyrazol-4-yl)methoxy)carbonyl)phenylthio)propanoic acid], the results for the EC50 at Gal-4 hPPARα, on Gal-4 hPPARγ and at Gal-4 hPPARβ/δ were 0.001 to 0.05 µM, greater than 1 µM and greater than 1 µM, respectively.
Regarding `CC(C)(Sc1ccc(C(=O)OCc2cnn(Cc3cccc(C(F)(F)F)c3)c2)cc1)C(=O)O` [Compound 30, 2-methyl-2-(4-(((1-(3-(trifluoromethyl)benzyl)-1H-pyrazol-4-yl)methoxy)carbonyl)phenylthio)propanoic acid], the EC50 is 0.001 to 0.05 µM on Gal-4 hPPARα, greater than 1 µM at Gal-4 hPPARγ and greater than 1 µM on Gal-4 hPPARβ/δ.
For the compound `CC(C)(Sc1ccc(C(=O)OCc2cnn(Cc3ccc(OC(F)(F)F)cc3)c2)cc1)C(=O)O` [Compound 32, 2-methyl-2-(4-(((1-(4-(trifluoromethoxy)benzyl)-1H-pyrazol-4-yl)methoxy)carbonyl)phenylthio)propanoic acid], the EC50 is 0.001 to 0.05 µM on Gal-4 hPPARα, greater than 1 µM at Gal-4 hPPARγ and greater than 1 µM on Gal-4 hPPARβ/δ.
Take `CC(C)(Sc1ccc(C(=O)OCc2cn(Cc3ccc(SC(F)(F)F)cc3)nn2)cc1)C(=O)O` [Compound 71, 2-methyl-2-(4-(((1-(4-(trifluoromethylthio)benzyl)-1H-1,2,3-triazol-4-yl)methoxy)carbonyl)phenylthio)propanoic acid]: the figures for the EC50 at Gal-4 hPPARα, at Gal-4 hPPARγ and on Gal-4 hPPARβ/δ were 0.051 to 0.2 µM, greater than 1 µM and greater than 1 µM, respectively.
As for `CC(C)(Sc1ccc(C(=O)OCc2cn(Cc3ccc(OC(F)(F)F)cc3)nn2)cc1)C(=O)O` [Compound 73, 2-methyl-2-(4-(((1-(4-(trifluoromethoxy)benzyl)-1H-1,2,3-triazol-4-yl)methoxy)carbonyl)phenylthio)propanoic acid], the results for the EC50 at Gal-4 hPPARα, on Gal-4 hPPARγ and at Gal-4 hPPARβ/δ were 0.051 to 0.2 µM, greater than 1 µM and greater than 1 µM, respectively.
Regarding `Cc1ccc(Cn2cc([C@H](C)OC(=O)c3ccc(SC(C)(C)C(=O)O)cc3)nn2)cc1` [Compound 85, (S)-2-methyl-2-(4-((1-(1-(4-methylbenzyl)-1H-1,2,3-triazol-4-yl)ethoxy)carbonyl)phenylthio)propanoic acid], the EC50 was 0.201 to 0.999 µM on Gal-4 hPPARα, greater than 1 µM at Gal-4 hPPARγ and greater than 1 µM at Gal-4 hPPARβ/δ.
Turning to `C[C@H](OC(=O)c1ccc(SC(C)(C)C(=O)O)cc1)c1cn(Cc2ccc(C(F)(F)F)cc2)nn1` [Compound 97, (S)-2-methyl-2-(4-((1-(1-(4-(trifluoromethyl)benzyl)-1H-1,2,3-triazol-4-yl)ethoxy)carbonyl)phenylthio)propanoic acid], the EC50 at Gal-4 hPPARα was 0.201 to 0.999 µM; on Gal-4 hPPARγ it was greater than 1 µM; on Gal-4 hPPARβ/δ it was greater than 1 µM.
As for `CC(C)(Sc1ccc(C(=O)OCc2cn(Cc3ccc(C(F)(F)F)cc3)nn2)cc1)C(=O)O` [Compound 102, 2-methyl-2-(4-(((1-(4-(trifluoromethyl)benzyl)-1H-1,2,3-triazol-4-yl)methoxy)carbonyl)phenylthio)propanoic acid], the values for the EC50 on Gal-4 hPPARα, at Gal-4 hPPARγ and at Gal-4 hPPARβ/δ were 0.051 to 0.2 µM, greater than 1 µM and greater than 1 µM, respectively.
As for `C[C@@H](OC(=O)c1ccc(SC(C)(C)C(=O)O)cc1)c1cn(Cc2ccc(SC(F)(F)F)cc2)nn1` [Compound 136, 4-(1-Carboxy-1-methyl-ethylsulfanyl)-benzoic acid (R)-1-[1-(4-trifluoromethylsulfanyl-benzyl)-1H-1,2,3-triazol-4-yl]-ethyl ester], the values for the EC50 at Gal-4 hPPARα, at Gal-4 hPPARγ and on Gal-4 hPPARβ/δ were 0.001 to 0.05 µM, 0.051 to 0.2 µM and greater than 1 µM, respectively.

Values taken from patent US20100184815A1 (priority 2008, published 2010).
